Measured values: ChEMBL document CHEMBL3301562, “MMV Box screening against Plasmodium falciparum protein kinases and aminoacyl tRNA synthetases”

Tests used:
Format in all cases: functional
[1] = molecular target: T1, Cdk-related protein kinase 6 (Plasmodium falciparum, UniProt O77239); assay: Final concentrations were 1.5 uM ATP, 5 mM MnCl2, and 15 ug/ml PK6 in a buffer of 100 mM Tris-HCl (pH 7.5). 50 ug/mL MBP was provided as the substrate; 10 uM staurosporine was used as a control inhibitor. Incubation time was 3 hours and 40 minutes.The catalytic activity of each kinase was considered proportional to ATP consumed, as determined from measurements of residual [ATP] with the luciferase-based reagent Kinase-Glo (Promega) following incubation. Luminescence (proportional to residual [ATP]) was measured on the plate readers FLx800 (BioTek Instruments, Winooski, VT, USA) and MicroBeta2.
T1 sequence (O77239 whole entry): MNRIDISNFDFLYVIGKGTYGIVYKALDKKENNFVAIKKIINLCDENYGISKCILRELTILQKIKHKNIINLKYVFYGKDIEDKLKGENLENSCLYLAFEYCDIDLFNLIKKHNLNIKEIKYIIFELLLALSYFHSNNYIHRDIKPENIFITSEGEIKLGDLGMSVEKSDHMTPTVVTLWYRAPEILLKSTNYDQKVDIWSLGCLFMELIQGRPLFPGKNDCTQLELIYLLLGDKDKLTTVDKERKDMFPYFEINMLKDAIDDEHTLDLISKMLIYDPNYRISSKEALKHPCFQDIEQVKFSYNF

[2] = molecular target: T2, Putative uncharacterized protein pk7 (Plasmodium falciparum, UniProt O96214); assay: Final concentrations were 1 uM ATP, 2 mM DTT, 20 mM MgCl2, 2 mM MnCl2, 0.01% BSA, and 6 ug/ml PK7, in a buffer of 20 mM Tris-HCl (pH 7.5). The enzyme itself was the only substrate present (since autophosphorylation occurs); 100 uM 1NA-PP1 was used as a control inhibitor. Incubation time was 3 hours.
T2 sequence (O96214 whole entry): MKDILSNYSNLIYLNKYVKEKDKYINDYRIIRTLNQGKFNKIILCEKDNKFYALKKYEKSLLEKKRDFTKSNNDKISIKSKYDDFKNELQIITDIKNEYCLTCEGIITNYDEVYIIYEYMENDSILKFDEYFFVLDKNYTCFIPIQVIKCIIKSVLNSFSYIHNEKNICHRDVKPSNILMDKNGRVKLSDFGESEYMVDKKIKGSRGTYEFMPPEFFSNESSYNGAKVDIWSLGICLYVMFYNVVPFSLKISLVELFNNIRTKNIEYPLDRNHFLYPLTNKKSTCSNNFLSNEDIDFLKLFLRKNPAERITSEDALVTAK

[3] = molecular target: T3, Mitogen-activated protein kinase (Plasmodium falciparum, UniProt Q25917); assay: Final concentrations were 1 uM ATP, 0.5 mM DTT, 1 mM MgCl2, 0.5 mg/mL BSA, and 10 ug/ml MAP2 in a buffer of 50 mM HEPES (pH 7.0). 0.5 mg/mL histone III-S served as the substrate (13); 100 uM AMP-PNP, an ATP analog, was used as a control inhibitor. Incubation time was 4 hours.
T3 sequence (Q25917 whole entry): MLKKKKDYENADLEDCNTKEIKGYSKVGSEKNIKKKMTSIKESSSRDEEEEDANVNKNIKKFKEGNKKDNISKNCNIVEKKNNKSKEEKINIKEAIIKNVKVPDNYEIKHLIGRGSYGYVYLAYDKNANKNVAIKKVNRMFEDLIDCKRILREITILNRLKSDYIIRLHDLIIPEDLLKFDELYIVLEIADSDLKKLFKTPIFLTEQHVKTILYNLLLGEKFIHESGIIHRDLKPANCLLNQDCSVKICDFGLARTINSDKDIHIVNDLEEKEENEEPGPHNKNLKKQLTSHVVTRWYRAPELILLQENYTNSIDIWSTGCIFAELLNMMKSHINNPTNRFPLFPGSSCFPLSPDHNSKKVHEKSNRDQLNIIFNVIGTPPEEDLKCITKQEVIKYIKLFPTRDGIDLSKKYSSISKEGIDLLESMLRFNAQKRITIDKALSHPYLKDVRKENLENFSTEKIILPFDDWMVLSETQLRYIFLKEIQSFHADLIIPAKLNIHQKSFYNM

[4] = molecular target: Calcium-dependent protein kinase 1 (Plasmodium falciparum, UniProt P62344); assay: MMV: CDPK1 Protein kinase inhibition assay using recombinant PfCDPK1, syntide 2 peptide substrate, ATP and KinaseGlo to measure % inhibition at 1 uM MMV box compound.
Chain of Calcium-dependent protein kinase 1 (P62344 whole entry): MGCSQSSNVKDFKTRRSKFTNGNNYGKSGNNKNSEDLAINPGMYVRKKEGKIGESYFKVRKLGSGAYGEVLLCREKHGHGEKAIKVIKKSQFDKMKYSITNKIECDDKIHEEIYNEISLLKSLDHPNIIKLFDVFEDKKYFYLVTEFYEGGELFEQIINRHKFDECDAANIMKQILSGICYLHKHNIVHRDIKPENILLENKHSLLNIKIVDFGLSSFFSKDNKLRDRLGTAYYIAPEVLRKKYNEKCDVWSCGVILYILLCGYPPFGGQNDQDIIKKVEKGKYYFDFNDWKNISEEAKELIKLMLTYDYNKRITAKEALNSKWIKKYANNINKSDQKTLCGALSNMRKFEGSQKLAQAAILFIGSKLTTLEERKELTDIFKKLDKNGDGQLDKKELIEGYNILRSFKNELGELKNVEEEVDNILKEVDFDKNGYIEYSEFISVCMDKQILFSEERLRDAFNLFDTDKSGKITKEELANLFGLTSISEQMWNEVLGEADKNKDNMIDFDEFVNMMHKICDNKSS

[5] = molecular target: T4, Calcium-dependent protein kinase 4 (Plasmodium falciparum (isolate 3D7), UniProt Q8IBS5); assay: MMV: CDPK4 Protein kinase inhibition assay using recombinant PfCDPK4, syntide2 peptide substrate, ATP and KinaseGlo to measure % inhibition at 1 uM MMV box compound.
T4 sequence (Q8IBS5 whole entry): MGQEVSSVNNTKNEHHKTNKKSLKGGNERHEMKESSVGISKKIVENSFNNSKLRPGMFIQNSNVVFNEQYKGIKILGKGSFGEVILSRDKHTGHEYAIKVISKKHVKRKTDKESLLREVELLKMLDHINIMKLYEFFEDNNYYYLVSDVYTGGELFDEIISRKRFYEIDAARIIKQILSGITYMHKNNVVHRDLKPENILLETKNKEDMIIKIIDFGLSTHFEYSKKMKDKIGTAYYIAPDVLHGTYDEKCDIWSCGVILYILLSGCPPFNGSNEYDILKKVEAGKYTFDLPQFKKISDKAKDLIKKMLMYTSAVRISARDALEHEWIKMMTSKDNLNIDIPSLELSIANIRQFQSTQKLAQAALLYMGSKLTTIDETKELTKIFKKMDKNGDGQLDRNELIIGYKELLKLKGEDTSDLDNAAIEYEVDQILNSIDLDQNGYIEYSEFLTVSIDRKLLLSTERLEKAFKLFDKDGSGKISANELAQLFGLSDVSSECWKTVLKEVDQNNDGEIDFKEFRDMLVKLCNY

Proline--tRNA ligase = molecular target: T5, Proline--tRNA ligase (Plasmodium falciparum (isolate 3D7), UniProt Q8I5R7); assay: MMV: ProRS recombinant Plasmodium falciparum Prolyl-tRNA-synthetase, assay with yeast tRNA, ATP, and proline and 3 uM MMV malaria box compound, assay read out with kinase glo as % inhibition.
T5 sequence (Q8I5R7 whole entry): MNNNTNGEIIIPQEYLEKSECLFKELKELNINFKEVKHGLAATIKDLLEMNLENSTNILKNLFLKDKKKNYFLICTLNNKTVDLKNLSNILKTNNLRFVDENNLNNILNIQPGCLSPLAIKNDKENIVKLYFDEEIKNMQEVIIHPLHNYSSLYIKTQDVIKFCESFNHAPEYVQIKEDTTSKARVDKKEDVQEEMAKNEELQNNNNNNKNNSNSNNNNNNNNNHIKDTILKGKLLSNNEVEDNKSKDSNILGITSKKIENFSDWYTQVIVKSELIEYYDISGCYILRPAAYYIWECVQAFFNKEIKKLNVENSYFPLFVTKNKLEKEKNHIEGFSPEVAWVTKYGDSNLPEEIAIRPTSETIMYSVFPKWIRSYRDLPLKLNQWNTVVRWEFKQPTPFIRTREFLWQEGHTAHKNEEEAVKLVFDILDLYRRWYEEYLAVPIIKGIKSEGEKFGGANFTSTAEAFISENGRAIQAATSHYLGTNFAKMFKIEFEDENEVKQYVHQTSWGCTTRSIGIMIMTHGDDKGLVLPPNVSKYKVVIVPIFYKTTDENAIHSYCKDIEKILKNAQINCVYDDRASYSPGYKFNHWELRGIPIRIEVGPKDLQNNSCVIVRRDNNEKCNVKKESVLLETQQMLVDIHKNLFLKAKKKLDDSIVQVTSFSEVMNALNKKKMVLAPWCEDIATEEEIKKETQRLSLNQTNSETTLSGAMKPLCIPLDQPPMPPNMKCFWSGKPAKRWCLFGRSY

Lysine--tRNA ligase = Lysine--tRNA ligase (Plasmodium falciparum (isolate 3D7), UniProt Q8IDJ8); assay: MMV: KRS recombinant Plasmodium falciparum Lysyl-tRNA-synthetase, assay with yeast tRNA, ATP, and lysine and 3 uM MMV malaria box compound, assay read out with kinase glo as % inhibition.
Chain of Lysine--tRNA ligase (Q8IDJ8 whole entry): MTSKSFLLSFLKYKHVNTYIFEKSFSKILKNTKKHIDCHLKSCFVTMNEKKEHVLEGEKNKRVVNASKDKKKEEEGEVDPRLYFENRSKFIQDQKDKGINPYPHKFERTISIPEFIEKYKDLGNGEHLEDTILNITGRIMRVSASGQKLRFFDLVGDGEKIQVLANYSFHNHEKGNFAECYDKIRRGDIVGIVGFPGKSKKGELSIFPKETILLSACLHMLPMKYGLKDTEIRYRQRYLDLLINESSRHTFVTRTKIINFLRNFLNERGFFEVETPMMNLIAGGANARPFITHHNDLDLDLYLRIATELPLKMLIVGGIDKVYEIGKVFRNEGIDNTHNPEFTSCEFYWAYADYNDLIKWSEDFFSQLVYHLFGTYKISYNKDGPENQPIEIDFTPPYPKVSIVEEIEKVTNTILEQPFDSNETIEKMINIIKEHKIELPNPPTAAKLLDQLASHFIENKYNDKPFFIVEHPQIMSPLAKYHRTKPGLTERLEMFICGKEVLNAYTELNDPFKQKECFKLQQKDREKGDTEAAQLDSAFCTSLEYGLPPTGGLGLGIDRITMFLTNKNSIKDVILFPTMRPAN

SMILES	IC50 [1]	IC50 [2]	IC50 [3]	IC50 [4]	IC50 [5]	IC50 (Proline--tRNA ligase)	IC50 (Lysine--tRNA ligase)
COc1ccc(C2c3ccc4ccccc4c3Oc3ncn(CCCN(C)C)c(=N)c32)cc1 (stereo not given)	> 1000 nM	> 1000 nM	> 1000 nM	> 1000 nM	> 1000 nM	> 2500 nM	> 2500 nM
c1ccc(/C2=N/c3ccccc3/N=C(/c3ccccc3)c3ccccc32)cc1	> 1000 nM	> 1000 nM	> 1000 nM	> 1000 nM	> 1000 nM	> 2500 nM	> 2500 nM
CCOC(=O)c1c(C)n(-c2ccccc2)c2ccc(OC(=O)c3cc(OC)c(OC)c(OC)c3)cc12	> 1000 nM	> 1000 nM	> 1000 nM	> 1000 nM	> 1000 nM	> 2500 nM	> 2500 nM
COc1ccc(C2c3ccc4ccccc4c3Oc3ncn(CCCn4ccnc4)c(=N)c32)cc1OC (stereo not given)	> 1000 nM	> 1000 nM	> 1000 nM	> 1000 nM	> 1000 nM	> 2500 nM	> 2500 nM
CN(N=O)C1=C(NC2CCCCC2)C(=O)c2ccccc2C1=O	> 1000 nM	> 1000 nM	> 1000 nM	> 1000 nM	> 1000 nM	> 2500 nM	> 2500 nM
Cc1ccc(C(=O)c2oc3ccc4c(C)cc(=O)oc4c3c2C)cc1	> 1000 nM	> 1000 nM	> 1000 nM	> 1000 nM	> 1000 nM	> 2500 nM	> 2500 nM
CCCCCCc1cc2cc(-c3csc(C=Cc4ccccc4)n3)c(=O)oc2cc1O	> 1000 nM	> 1000 nM	> 1000 nM	> 1000 nM	> 1000 nM	> 2500 nM	> 2500 nM
CC(Oc1ccc(NC(=O)c2cccs2)cc1)C(=O)c1ccc(Cl)cc1 (stereo not given)	> 1000 nM	> 1000 nM	> 1000 nM	> 1000 nM	> 1000 nM	> 2500 nM	> 2500 nM
O=C(NC1CCN(Cc2ccccc2)CC1)c1cc(C(=O)NC2CCN(Cc3ccccc3)CC2)cc(C(=O)NC2CCN(Cc3ccccc3)CC2)c1	> 1000 nM	> 1000 nM	> 1000 nM	> 1000 nM	> 1000 nM	> 2500 nM	> 2500 nM
COc1ccc(-c2cn3c(C(=O)Nc4ccccc4Cl)c(-c4ccccc4)c4c3n2CCCC4)cc1	> 1000 nM	> 1000 nM	> 1000 nM	> 1000 nM	> 1000 nM	> 2500 nM	> 2500 nM
CCN(CC)CCNc1ccnc2cc3ccccc3cc12	> 1000 nM	> 1000 nM	> 1000 nM	> 1000 nM	> 1000 nM	> 2500 nM	> 2500 nM
COc1ccc(C=C2SC(Nc3ccc(F)cc3)=NC2=O)c(OC)c1	> 1000 nM	> 1000 nM	> 1000 nM	> 1000 nM	> 1000 nM	> 2500 nM	> 2500 nM
CCOc1cc2c(cc1OCC)C(c1cc(Cl)ccc1O)NCC2 (stereo not given)	> 1000 nM	> 1000 nM	> 1000 nM	> 1000 nM	> 1000 nM	> 2500 nM	> 2500 nM
O=C(Cc1ccccc1)NC(c1ccc(Cl)cc1)c1c(O)ccc2ccccc12 (stereo not given)	> 1000 nM	> 1000 nM	> 1000 nM	> 1000 nM	> 1000 nM	> 2500 nM	> 2500 nM
c1ccc(CNc2nc(Nc3ccccc3)nc3ccccc23)cc1	> 1000 nM	> 1000 nM	> 1000 nM	> 1000 nM	> 1000 nM	> 2500 nM	> 2500 nM
Cc1cccc(N2C(=O)C3C(C2=O)C2(c4ccccc4)C(=O)C3(c3ccccc3)C(c3ccc4c(c3)OCO4)=C2c2ccc3c(c2)OCO3)c1 (stereo not given)	> 1000 nM	> 1000 nM	> 1000 nM	> 1000 nM	> 1000 nM	> 2500 nM	> 2500 nM
COc1ccc2sc(N(Cc3cccnc3)C(=O)c3ccc(C#N)cc3)nc2c1	> 1000 nM	> 1000 nM	> 1000 nM	> 1000 nM	> 1000 nM	> 2500 nM	> 2500 nM
CC1CC2=C(CC1CNCCCN(C)C)C(C)(C)CCC2 (stereo not given)	> 1000 nM	> 1000 nM	> 1000 nM	> 1000 nM	> 1000 nM	> 2500 nM	> 2500 nM
CN(C)c1ccc(N=Cc2ccc(N3CCOCC3)cc2)cc1	> 1000 nM	> 1000 nM	> 1000 nM	> 1000 nM	> 1000 nM	> 2500 nM	> 2500 nM
CCCCc1c(CCC)c(=N)c2ccccc2n1C	> 1000 nM	> 1000 nM	> 1000 nM	> 1000 nM	> 1000 nM	> 2500 nM	> 2500 nM
